Assay results from US8859569B2, “Substituted annellated pyrimidines and use thereof” (Bayer Pharma Aktiengesellschaft, priority 2011, dated 2014).

Legend:
[1] = target: T1, human phosphodiesterase 5 (PDE-5) (Homo sapiens, UniProt O76074); experiment: Inhibition of human phosphodiesterase 5 (PDE-5), SPA assay; assay type: biochemical; conditions: PDE-5 preparation from human platelets, [8-3H]cGMP substrate
T1 construct: PDE-5 preparations are obtained from human platelets by lysis; from tissue; host or cells: human platelets
Outline: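 Scintillation proximity read-out with yttrium beads after 60 min room-temperature hydrolysis of 0.025 μCi [8-3H]cGMP, pH 7.5 Tris/MgCl2/EDTA buffer. Enzyme is a human platelet PDE-5 fraction, diluted to keep substrate turnover below 70%. Test concentrations 4 μM–0.0018 μM final; IC50 from inhibition curves.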

[2] = tested on: aorta rings; experiment: Vessel-relaxing action in vitro (aorta rings, phenylephrine contraction); conditions: Oryctolagus cuniculus, concentration required to reduce phenylephrine-induced contraction of rabbit aorta rings by 50%
Outline: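 Rabbit aortic rings 1.5 mm wide were held under preload in carbogen-gassed Krebs-Henseleit at 37 °C and contracted with cumulative phenylephrine. Test substance was added in rising doses on successive passes, each compared with the preceding control contraction. IC50 is the concentration that halves contraction, with 0.1% DMSO in the bath.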

[3] = target: T2, recombinant guanylate cyclase reporter cell line (Rattus norvegicus, UniProt P19686+P20595); experiment: Action on recombinant guanylate cyclase reporter cell line; assay type: cell-based
T2 construct: expressed in transfected cells
T2 sequence (P20595 1-619): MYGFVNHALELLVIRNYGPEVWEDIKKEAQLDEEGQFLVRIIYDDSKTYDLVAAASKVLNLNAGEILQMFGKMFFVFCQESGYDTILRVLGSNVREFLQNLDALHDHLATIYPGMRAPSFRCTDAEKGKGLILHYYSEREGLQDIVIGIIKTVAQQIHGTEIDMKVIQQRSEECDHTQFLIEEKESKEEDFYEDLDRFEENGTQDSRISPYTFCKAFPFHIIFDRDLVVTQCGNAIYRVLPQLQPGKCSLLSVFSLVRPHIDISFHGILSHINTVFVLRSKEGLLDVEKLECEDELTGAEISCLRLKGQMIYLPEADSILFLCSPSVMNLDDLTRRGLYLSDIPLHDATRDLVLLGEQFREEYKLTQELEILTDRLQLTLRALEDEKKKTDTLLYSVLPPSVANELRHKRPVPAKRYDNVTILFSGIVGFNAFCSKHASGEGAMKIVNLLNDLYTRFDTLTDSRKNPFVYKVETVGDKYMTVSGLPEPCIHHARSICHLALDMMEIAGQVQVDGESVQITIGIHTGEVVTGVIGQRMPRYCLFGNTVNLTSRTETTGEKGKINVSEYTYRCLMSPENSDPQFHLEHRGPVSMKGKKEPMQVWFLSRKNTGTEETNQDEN
T2 sequence (P19686 1-690): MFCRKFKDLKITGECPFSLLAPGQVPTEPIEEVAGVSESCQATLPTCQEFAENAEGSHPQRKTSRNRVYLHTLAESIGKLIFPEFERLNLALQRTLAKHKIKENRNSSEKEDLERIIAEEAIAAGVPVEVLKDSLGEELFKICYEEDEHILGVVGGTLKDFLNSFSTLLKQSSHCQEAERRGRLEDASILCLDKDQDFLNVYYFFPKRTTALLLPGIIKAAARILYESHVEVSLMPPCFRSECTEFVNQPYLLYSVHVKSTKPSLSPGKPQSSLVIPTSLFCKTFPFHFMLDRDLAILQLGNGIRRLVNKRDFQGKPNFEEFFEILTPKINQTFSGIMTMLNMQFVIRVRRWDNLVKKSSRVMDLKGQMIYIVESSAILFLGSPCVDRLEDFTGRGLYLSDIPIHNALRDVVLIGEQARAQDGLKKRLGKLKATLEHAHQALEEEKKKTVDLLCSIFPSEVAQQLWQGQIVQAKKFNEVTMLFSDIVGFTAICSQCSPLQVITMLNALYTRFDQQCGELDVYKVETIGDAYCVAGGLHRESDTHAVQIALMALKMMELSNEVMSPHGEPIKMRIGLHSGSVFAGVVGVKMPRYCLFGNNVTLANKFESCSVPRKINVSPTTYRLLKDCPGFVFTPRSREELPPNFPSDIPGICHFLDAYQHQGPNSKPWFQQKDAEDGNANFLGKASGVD
Method: B-2. Action on Recombinant Guanylate Cyclase Reporter Cell Line
The cellular action of the compounds according to the invention is determined on a recombinant guanylate cyclase reporter cell line, as described in F. Wunder et al., Anal. Biochem. 339, 104-112 (2005).

Row | Compound | IC50 [1] | IC50 [2] | MEC (minimal effective concentration) [3]
1 | CC1(C)C(=O)Nc2nc(-c3nn(Cc4ccccc4F)c4ncc(F)cc34)nc(NCC3CC3(F)F)c21 (stereo not drawn) [Example 97, 4-{[(2,2-Difluorocyclopropyl)methyl]amino}-2-[5-fluoro-1-(2-fluorobenzyl)-1H-pyrazolo[3,4-b]pyridin-3-yl]-5,5-dimethyl-5,7-dihydro-6H-pyrrolo[2,3-d]pyrimidin-6-one] | 63 nM | 1350 nM | 0.1 μm
2 | CC1(C)C(=O)Nc2nc(-c3nn(Cc4ccccc4F)c4ncc(F)cc34)nc(NCC3(O)CC3)c21 [Example 98, 2-[5-Fluoro-1-(2-fluorobenzyl)-1H-pyrazolo[3,4-b]pyridin-3-yl]-4-{[(1-hydroxycyclopropyl)methyl]amino}-5,5-dimethyl-5,7-dihydro-6H-pyrrolo[2,3-d]pyrimidin-6-one] | 4 nM | 214 nM | 0.01 μm
3 | CC1(C)C(=O)Nc2nc(-c3nn(Cc4ccccc4F)c4ncc(F)cc34)nc(NCC3CC3(C)C)c21 (stereo not drawn) [Example 99, 4-{[(2,2-Dimethylcyclopropyl)methyl]amino}-2-[5-fluoro-1-(2-fluorobenzyl)-1H-pyrazolo[3,4-b]pyridin-3-yl]-5,5-dimethyl-5,7-dihydro-6H-pyrrolo[2,3-d]pyrimidin-6-one] | 440 nM | 10000 nM | 0.3 μm
4 | O=C1Nc2nc(-c3nn(Cc4ccccc4F)c4ncc(F)cc34)nc(NCCC(F)(F)F)c2C12CCOC2 (stereo not drawn) [Example 100, 2′-[5-Fluoro-1-(2-fluorobenzyl)-1H-pyrazolo[3,4-b]pyridin-3-yl]-4′-[(3,3,3-trifluoropropyl)amino]-4,5-dihydrospiro[furan-3,5′-pyrrolo[2,3-d]pyrimidin]-6′(7′H)-one] | 2800 nM | 4760 nM | 0.3 μm
5 | CC1(C)C(=O)Nc2nc(-c3nn(Cc4ccccc4F)c4ncc(F)cc34)nc(O)c21 [Example 102, 2-[5-Fluoro-1-(2-fluorobenzyl)-1H-pyrazolo[3,4-b]pyridin-3-yl]-4-hydroxy-5,5-dimethyl-5,7-dihydro-6H-pyrrolo[2,3-d]pyrimidin-6-one] | 74 nM | 156 nM | 1 μm
6 | CC1(C)C(=O)Nc2nc(-c3nn(Cc4ccccc4F)c4ncc(F)cc34)nc(N3CCC(F)(F)CC3)c21 [Example 103, 4-(4,4-Difluoropiperidin-1-yl)-2-[5-fluoro-1-(2-fluorobenzyl)-1H-pyrazolo[3,4-b]pyridin-3-yl]-5,5-dimethyl-5,7-dihydro-6H-pyrrolo[2,3-d]pyrimidin-6-one] | 400 nM | 551 nM | 1 μm
7 | CC1(C)C(=O)Nc2nc(-c3nn(Cc4ccccc4F)c4ncc(F)cc34)nc(N3CC(O)C3)c21 [Example 104, 2-[5-Fluoro-1-(2-fluorobenzyl)-1H-pyrazolo[3,4-b]pyridin-3-yl]-4-(3-hydroxyazetidin-1-yl)-5,5-dimethyl-5,7-dihydro-6H-pyrrolo[2,3-d]pyrimidin-6-one] | 80 nM | 482 nM | 0.1 μm
8 | CC1(C)C(=O)Nc2nc(-c3nn(Cc4ccccc4F)c4ncccc34)nc(N3CC(N4CCCC4)C3)c21 [Example 105, 2-[1-(2-Fluorobenzyl)-1H-pyrazolo[3,4-b]pyridin-3-yl]-5,5-dimethyl-4-[3-(pyrrolidin-1-yl)azetidin-1-yl]-5,7-dihydro-6H-pyrrolo[2,3-d]pyrimidin-6-one] | 980 nM | 478 nM | 0.3 μm
9 | CC1(C)C(=O)Nc2nc(-c3nn(Cc4ccccc4F)c4ncccc34)nc(N3CC(N)C3)c21 [Example 107, 4-(3-Aminoazetidin-1-yl)-2-[1-(2-fluorobenzyl)-1H-pyrazolo[3,4-b]pyridin-3-yl]-5,5-dimethyl-5,7-dihydro-6H-pyrrolo[2,3-d]pyrimidin-6-one] | 100 nM | 700 nM | 1 μm
